target: T1, hα4 and β1 integrins (VLA-4) (Homo sapiens, UniProt P05556+P13612); assay: In vitro evaluation: inhibition of binding of CHO cells expressing hα4 and β1 integrins to Eu3+-hVCAM-1 D1D7-IgG; settings: ligand Eu3+-hVCAM-1 D1D7-IgG 2 nM, Ki calculated from IC50
T1 construct: expressed in transfected cells; host or cells: CHO cells
Description: CHO cells which were forced to be expressed by transduction of hα4 and β1 integrins are seeded (3×10^4 cells/100 μl/well) on a Costar 3599 plate, and cultured for 2 days. A medium is washed with a buffer A* two times, and Eu^3+-hVCAM-1 D1D7-IgG which was diluted with an assay buffer A** to 2 nM is added at 50 μl/well. A test substance which was diluted with 2% DMSO-assay buffer (in the presence or the absence of 6% human serum albumin) is added at 50 μl/well (A solution which was separately diluted is added to a well in which Scatchard analysis is performed), this is stirred with a plate mixer for 5 minutes, and allowed to stand at room temperature for 1 hour. Thereafter, this is washed with a buffer A four times, a potentiating reagent (manufactured by DELFIA) is added at 100 μl/well, this is shaken for 5 minutes using a plate mixer, and a fluorescence intensity is measured with a time-resolved fluorometer (DELFIA Wallac). IC50 (concentration at which binding of CHO cell and Eu^3+-hVCAM-1 D1D7-IgG is inhibited by 50%) of a test substance is obtained from an integration rate obtained from a calculation equation: [(FT−FNS)−(FI−FNS)]/[(FT−FNS)]×100, wherein FT indicates a fluorescence intensity of a well not containing a test substance, FNS indicates a fluorescence intensity of a well not containing a test substance and hVCAM-1 D1D7-IgG, and FI indicates a fluorescence intensity containing a test substance. A Kd value showing strength of binding and Bmax (maximum binding amount) were presumed in a range of 0.06 to 20 nM according to the Scachard analysis method. [formula]
A Ki value was calculated according to the above equation ([L] is ligand concentration)
[* buffer A: 25 mM HEPES (pH 7.5), 150 mM NaCl, 1 mM Ca^2+, 1 mM Mg^2+, 4 mM Mn^2+; ** assay buffer: 25 mM HEPES (pH 7.5), 150 mM NaCl, 1 mM Ca^2+, 1 mM Mg^2+, 4 mM Mn^2+, 0.1% BSA, 20 μM DTPA, with/without 6% ALBUMIN, HUMAN SERUM (C/NA-1653, SIGMA)]

T1 sequence (P13612 34-1032): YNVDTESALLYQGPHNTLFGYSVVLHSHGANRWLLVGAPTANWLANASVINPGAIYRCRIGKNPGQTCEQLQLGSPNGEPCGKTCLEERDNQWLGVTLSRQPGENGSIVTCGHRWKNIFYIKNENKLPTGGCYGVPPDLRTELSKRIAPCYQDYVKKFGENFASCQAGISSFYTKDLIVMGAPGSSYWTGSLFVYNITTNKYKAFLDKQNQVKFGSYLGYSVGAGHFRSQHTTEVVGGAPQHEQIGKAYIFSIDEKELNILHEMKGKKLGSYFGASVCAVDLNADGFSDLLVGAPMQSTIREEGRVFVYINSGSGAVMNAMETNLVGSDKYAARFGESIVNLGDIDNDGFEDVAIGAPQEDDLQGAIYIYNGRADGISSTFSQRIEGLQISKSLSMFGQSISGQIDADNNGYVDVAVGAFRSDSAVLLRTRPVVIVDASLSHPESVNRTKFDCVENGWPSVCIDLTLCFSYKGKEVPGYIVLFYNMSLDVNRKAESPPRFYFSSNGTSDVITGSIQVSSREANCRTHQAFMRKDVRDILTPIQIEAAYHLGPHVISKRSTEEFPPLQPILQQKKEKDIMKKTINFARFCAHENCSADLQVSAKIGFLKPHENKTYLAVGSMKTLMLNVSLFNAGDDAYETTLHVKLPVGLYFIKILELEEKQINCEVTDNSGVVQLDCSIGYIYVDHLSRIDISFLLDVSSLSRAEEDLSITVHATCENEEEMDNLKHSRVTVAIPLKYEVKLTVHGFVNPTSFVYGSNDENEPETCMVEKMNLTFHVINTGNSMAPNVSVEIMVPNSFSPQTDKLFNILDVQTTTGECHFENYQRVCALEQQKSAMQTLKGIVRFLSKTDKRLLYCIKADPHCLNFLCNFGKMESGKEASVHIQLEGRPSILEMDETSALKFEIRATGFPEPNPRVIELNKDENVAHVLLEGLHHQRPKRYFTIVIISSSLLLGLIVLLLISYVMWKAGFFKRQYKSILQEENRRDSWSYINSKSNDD
T1 sequence (P05556 21-798): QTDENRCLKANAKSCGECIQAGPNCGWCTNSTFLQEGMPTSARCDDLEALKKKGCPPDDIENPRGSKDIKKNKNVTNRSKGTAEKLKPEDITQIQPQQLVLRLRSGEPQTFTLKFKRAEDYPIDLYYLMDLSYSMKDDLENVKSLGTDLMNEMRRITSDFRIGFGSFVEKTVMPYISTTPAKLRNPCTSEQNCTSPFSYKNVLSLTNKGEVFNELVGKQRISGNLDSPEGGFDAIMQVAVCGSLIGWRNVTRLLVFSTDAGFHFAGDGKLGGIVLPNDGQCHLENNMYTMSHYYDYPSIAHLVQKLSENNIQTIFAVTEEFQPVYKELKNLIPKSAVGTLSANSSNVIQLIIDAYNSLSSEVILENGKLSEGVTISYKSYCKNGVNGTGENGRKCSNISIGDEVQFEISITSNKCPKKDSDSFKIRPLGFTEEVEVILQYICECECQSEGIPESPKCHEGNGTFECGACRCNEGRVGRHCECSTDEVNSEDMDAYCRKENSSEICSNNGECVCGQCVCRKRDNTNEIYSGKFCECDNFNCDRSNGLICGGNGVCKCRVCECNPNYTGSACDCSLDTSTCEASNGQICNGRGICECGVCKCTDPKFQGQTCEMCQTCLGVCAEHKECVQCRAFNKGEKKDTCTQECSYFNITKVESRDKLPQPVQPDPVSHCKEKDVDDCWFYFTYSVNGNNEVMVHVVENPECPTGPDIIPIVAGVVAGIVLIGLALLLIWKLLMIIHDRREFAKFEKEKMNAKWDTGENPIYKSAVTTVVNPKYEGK

Ki [nM] | Structure (SMILES)
3.5 | CON(C)[C@H]1C[C@@H](c2ncc(CCC(=O)O)s2)N(C(=O)Cc2cc(Cl)c(NC(=O)c3csc4ccccc34)cc2Cl)C1 [Example 130, 3-[2-[1-[4-(3-Benzo[b]thiophenylcarbonylamino)-2,5-dichlorophenylacetyl]-(4S)—N,O-dimethylhydroxylamino-(2S)-pyrrolidinyl]-5-thiazolyl]propionic acid]
0.6 | CO[C@H]1C[C@@H](c2ncc(CCC(=O)O)s2)N(C(=O)Cc2cc(Cl)c(NC(=O)c3coc4ccccc34)cc2Cl)C1 [Example 5, 3-[2-[1-[4-[(1-Benzofuran-3-ylcarbonyl)amino]-2,5-dichlorophenylacetyl]-(4S)-methoxy-(2S)-pyrrolidinyl]-5-thiazolyl]propionic acid]
4.5 | COC[C@@]1(c2ncc(CCC(=O)O)s2)C[C@H](OC)CN1C(=O)Cc1cc(Cl)c(NC(=O)c2cn(C)c3ccccc23)cc1Cl [Example 133, 3-{2-[(2R,4S)-1-[2-(2,5-dichloro-4-{[(1-methyl-1H-indol-3-yl)carbonyl]amino}phenyl)acetyl]-4-methoxy-2-(methoxymethyl)pyrrolidinyl]thiazol-5-yl}propionic acid]
40 | O=C(O)CCc1cnc([C@@H]2[C@@H](O)CCN2C(=O)Cc2ccc(Nc3nc4ccccc4o3)c(Cl)c2)s1 [Example 116, 3-[2-[1-[4-(2-Benzoxazolyl)amino-3-chlorophenyl]acetyl-(3S)-hydroxy-(2S)-pyrrolidinyl]-5-thiazolyl]propionic acid]
4.2 | CCO[C@H]1CCN(C(=O)Cc2cc(Cl)c(NC(=O)c3coc4ccccc34)cc2F)[C@@H]1c1ncc(CCC(=O)O)s1 [Example 95]
51 | CCOC[C@@H]1CC[C@@H](c2ncc(CCC(=O)O)s2)N1C(=O)Cc1cc(Cl)c(NC(=O)c2coc3ccccc23)cc1F [Example 50, 3-[2-[1-[4-[(1-Benzofuran-3-ylcarbonyl)amino]-5-chloro-2-fluorophenylacetyl]-(5S)-ethoxymethyl-2(2S)-pyrrolidinyl)-5-thiazolyl]propionic acid]
0.96 | COc1ccc(F)cc1Nc1nc2ccc(CC(=O)N3C[C@@H](OC)C[C@H]3c3ncc(CCC(=O)O)s3)c(F)c2o1 [Example 9, 3-[2-[1-[[7-Fluoro-2-(5-fluoro-2-methoxyphenylamino)-1,3-benzoxazol-6-yl]acetyl]-(4S)-methoxy-(2S)-pyrrolidinyl]-5-thiazolyl]propionic acid]
21 | CCO[C@H]1CCN(C(=O)Cc2ccc3nc(Nc4ccccc4OC)oc3c2)[C@@H]1c1ncc(CCC(=O)O)o1 [Example 106, 3-[2-[1-[[2-(2-Methoxyphenyl)amino-6-benzoxazolyl]acetyl]-(3S)-ethoxy-(2S)-pyrrolidinyl]-5-oxazolyl]propionic acid]
0.86 | O=C(O)CCc1cnc([C@@H]2CCCN2C(=O)Cc2cc(Cl)c(NC(=O)c3csc4ccccc34)cc2Cl)s1 [Example 28, 3-[2-[1-[[4-[(3-Benzo[b]thienylcarbonyl)amino]-2,5-dichlorophenyl]acetyl]-(2S)-pyrrolidinyl]-5-thiazolyl]propionic acid]
2 | CO[C@H]1C[C@@H](c2cc(CCC(=O)O)on2)N(C(=O)Cc2cc(Cl)c(NC(=O)c3csc4ccccc34)cc2F)C1 [Example 33, 3-[3-[1-[[4-[(3-Benzo[b]thienylcarbonyl)amino]-5-chloro-2-fluorophenyl]acetyl]-(4S)-methoxy-(2S)-pyrrolidinyl]-5-isoxazolyl]propionic acid]
0.26 | O=C(O)CCc1cnc([C@@H]2CCCN2C(=O)Cc2cc(Cl)c(NC(=O)c3csc4ccccc34)cc2F)s1 [Example 29, 3-[2-[1-[4-[(3-Benzo[b]thienylcarbonyl)amino]-5-chloro-2-fluorophenylacetyl]-(2S)-pyrrolidinyl]-5-thiazolyl]propionic acid]
0.94 | Cn1cc(C(=O)Nc2cc(F)c(CC(=O)N3C[C@@H](F)C[C@H]3c3ncc(CCC(=O)O)s3)cc2Cl)c2ccccc21 [Example 19, 3-[2-[1-[5-Chloro-2-fluoro-4-(1-methyl-3-indolylcarbonyl)aminophenylacetyl]-(4S)-fluoro-(2S)-pyrrolidinyl]-5-thiazolyl]propionic acid]
4 | CO[C@H]1C[C@@H](c2ncc(CCC(=O)O)o2)N(C(=O)Cc2cc(Cl)c(NC(=O)c3csc4ccccc34)cc2Cl)C1 [Example 14, 3-[2-[1-[[4-[(3-Benzo[b]thienylcarbonyl)amino]-2,5-dichlorophenyl]acetyl]-(4S)-methoxy-(2S)-pyrrolidinyl]-5-oxazolyl]propionic acid]
5.9 | CON(C)[C@H]1C[C@@H](c2ncc(CCC(=O)O)s2)N(C(=O)Cc2cc(Cl)c(NC(=O)c3coc4ccccc34)cc2F)C1 [Example 131, 3-[2-[1-[4-(3-Benzo[b]furanylcarbonylamino)-5-chloro-2-fluorophenylacetyl]-(4S)—N,O-dimethylhydroxylamino-(2S)-pyrrolidinyl]-5-thiazolyl]propionic acid]
36 | CCOC[C@@H]1CC[C@@H](c2ncc(CCC(=O)O)s2)N1C(=O)Cc1cc(Cl)c(NC(=O)c2cn(C)c3ccccc23)cc1Cl [Example 48, 3-[2-[1-[2,5-Dichloro-4-(1-methyl-3-indolylcarbonylamino)phenylacetyl]-(5S)-ethoxymethyl-(2S)-pyrrolidinyl]-5-thiazolyl]propionic acid]
5.8 | CO[C@H]1C[C@@H](c2cc(CCC(=O)O)on2)N(C(=O)Cc2cc(Cl)c(NC(=O)c3cn(C)c4ccccc34)cc2F)C1 [Example 31, 3-[3-[1-[5-Chloro-2-fluoro-4-(1-methyl-3-indolylcarbonyl)aminophenylacetyl]-(4S)-methoxy-(2S)-pyrrolidinyl]-5-isoxazolyl]propionic acid]
5.8 | CO[C@H]1C[C@@H](c2cc(CCC(=O)O)on2)N(C(=O)Cc2cc(Cl)c(NC(=O)c3cn(C)c4ccccc34)cc2Cl)C1 [Example 30, 3-[3-[1-[2,5-Dichloro-4-(1-methyl-3-indolylcarbonylamino)phenylacetyl]-(4S)-methoxy-(2S)-pyrrolidinyl]-5-isoxazole]propionic acid]
11 | CCO[C@H]1CCN(C(=O)Cc2ccc3nc(Nc4cc(F)ccc4OC)oc3c2F)[C@@H]1c1ncc(CCC(=O)O)o1 [Example 105, 3-[2-[1-[[7-Fluoro-2-(5-fluoro-2-methoxyphenyl)amino-6-benzoxazolyl]acetyl]-(3S)-ethoxy-(2S)-pyrrolidinyl]-5-oxazolyl]propionic acid]
3.3 | CC(C)O[C@H]1C[C@@H](c2ncc(CCC(=O)O)s2)N(C(=O)Cc2cc(Cl)c(NC(=O)c3coc4ccccc34)cc2F)C1 [Example 38]
76 | CO[C@@H]1C[C@@H](c2ncc(CCC(=O)O)s2)N(C(=O)Cc2cc(Cl)c(Nc3nc4ccccc4o3)cc2Cl)C1 [Example 124, 3-[2-[1-[4-(2-Benzoxazolyl)amino-2,5-dichlorophenyl]acetyl-(4R)-methoxy-(2S)-pyrrolidinyl]-5-thiazolyl]propionic acid]
17 | CCO[C@H]1CCN(C(=O)Cc2cc(Cl)c(NC(=O)c3coc4ccccc34)cc2Cl)[C@@H]1c1ncc(CCC(=O)O)o1 [Example 102]
1.5 | COc1cc(CC(=O)N[C@@H](CC(C)C)c2cc(CCC(=O)O)on2)ccc1NC(=O)Nc1ccccc1C [CP664511]
36 | O=C(O)CCc1cnc([C@@H]2[C@@H](O)CCN2C(=O)Cc2cc(Cl)c(Nc3nc4ccccc4o3)cc2Cl)s1 [Example 118, 3-[2-[1-[4-(2-Benzoxazolyl)amino-2,5-dichlorophenyl]acetyl-(3S)-hydroxy-(2S)-pyrrolidinyl]-5-thiazolyl]propionic acid]
34 | CCOC[C@@H]1CC[C@@H](c2ncc(CCC(=O)O)s2)N1C(=O)Cc1ccc2nc(Nc3cc(F)ccc3OC)oc2c1F [Example 52, 3-[2-[(5S)-ethoxymethyl-1-[7-fluoro-2-(5-fluoro-2-methoxyphenylamino)-6-benzoxazolylacetyl]-(2S)-pyrrolidinyl]-5-thiazolyl]propionic acid]
35 | O=C(O)CCc1cnc([C@@H]2[C@@H](O)CCN2C(=O)Cc2cc(Cl)c(Nc3nc4ccccc4o3)cc2F)s1 [Example 117, 3-[2-[1-[4-(2-Benzoxazolyl)amino-5-chloro-2-fluorophenyl]acetyl-(3S)-hydroxy-(2S)-pyrrolidinyl]-5-thiazolyl]propionic acid]

Structure (SMILES) | Ki [nM]
O=C(O)CCc1cnc([C@@H]2C[C@H](OC3CCC3)CN2C(=O)Cc2cc(Cl)c(NC(=O)c3coc4ccccc34)cc2F)s1 [Example 43, 3-[2-[1-[4-[(1-Benzofuran-3-ylcarbonyl)amino]-5-chloro-2-fluorophenylacetyl]-(4S)-cyclobutoxy-(2S)-pyrrolidinyl]-5-thiazolyl]propionic acid] | 2.9
